Source: PubChem BioAssay (NCI)
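How tested: cells in 96-well plates exposed to compound for 48 hours at five concentrations. Here, GI50 denotes the concentration required for 50% inhibition of growth. TGI denotes the concentration required for complete inhibition of growth.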

Columns and labels:
Assay in all cases: NCI tumour cell line growth inhibition, 48 h
MDA-MB-468 breast = tested on: MDA-MB-468 breast
786-0 renal = tested on: 786-0 renal
A498 renal = tested on: A498 renal
A549 NSCLC = tested on: A549 NSCLC
ACHN renal = tested on: ACHN renal
BT-549 breast = tested on: BT-549 breast
CAKI-1 renal = tested on: CAKI-1 renal
CCRF-CEM leukemia = tested on: CCRF-CEM leukemia
COLO 205 colon = tested on: COLO 205 colon
DU-145 prostate = tested on: DU-145 prostate
EKVX NSCLC = tested on: EKVX NSCLC
HCC-2998 colon = tested on: HCC-2998 colon
HCT-116 colon = tested on: HCT-116 colon
HCT-15 colon = tested on: HCT-15 colon
HL-60(TB) leukemia = tested on: HL-60(TB) leukemia
HOP-62 NSCLC = tested on: HOP-62 NSCLC
HOP-92 NSCLC = tested on: HOP-92 NSCLC
HS 578T breast = tested on: HS 578T breast
HT29 colon = tested on: HT29 colon
IGROV1 ovarian = tested on: IGROV1 ovarian
K-562 leukemia = tested on: K-562 leukemia
KM12 colon = tested on: KM12 colon
LOX IMVI melanoma = tested on: LOX IMVI melanoma
M14 melanoma = tested on: M14 melanoma
MALME-3M melanoma = tested on: MALME-3M melanoma
MCF7 breast = tested on: MCF7 breast
MDA-MB-231 breast = tested on: MDA-MB-231 breast
MDA-MB-435 = tested on: MDA-MB-435
MOLT-4 leukemia = tested on: MOLT-4 leukemia
NCI-H226 lung = tested on: NCI-H226 lung
NCI-H23 lung = tested on: NCI-H23 lung
NCI-H460 lung = tested on: NCI-H460 lung
NCI-H522 lung = tested on: NCI-H522 lung
OVCAR-3 ovarian = tested on: OVCAR-3 ovarian
OVCAR-4 ovarian = tested on: OVCAR-4 ovarian
OVCAR-5 ovarian = tested on: OVCAR-5 ovarian
OVCAR-8 ovarian = tested on: OVCAR-8 ovarian
PC-3 prostate = tested on: PC-3 prostate
RPMI-8226 leukemia = tested on: RPMI-8226 leukemia
RXF 393 renal = tested on: RXF 393 renal
SF-268 CNS = tested on: SF-268 CNS
SF-295 CNS = tested on: SF-295 CNS
SF-539 CNS = tested on: SF-539 CNS
SK-MEL-28 melanoma = tested on: SK-MEL-28 melanoma
SK-MEL-5 melanoma = tested on: SK-MEL-5 melanoma
SK-OV-3 ovarian = tested on: SK-OV-3 ovarian
SN12C renal = tested on: SN12C renal
SNB-19 CNS = tested on: SNB-19 CNS
SNB-75 CNS = tested on: SNB-75 CNS
SR leukemia = tested on: SR leukemia
SW-620 colon = tested on: SW-620 colon
T-47D breast = tested on: T-47D breast
TK-10 renal = tested on: TK-10 renal
U251 CNS = tested on: U251 CNS
UACC-257 melanoma = tested on: UACC-257 melanoma
UACC-62 melanoma = tested on: UACC-62 melanoma
UO-31 renal = tested on: UO-31 renal

For `CC(C)(C)[Si](C)(C)OC1[C@@H](O[Si](C)(C)C(C)(C)C)[C@@H](CNC(=O)NC(=O)NC(=O)CI)O[C@H]1n1cnc2c(NC(=O)Nc3ccccc3)ncnc21` (some centres undefined), the GI50 (MDA-MB-468 breast) was 0.334 µM and the TGI (MDA-MB-468 breast) was 2.06 µM.
`O=C(Nc1cccc(NS(=O)(=O)c2ccc(F)cc2)c1)c1ccc(-c2ccccc2)cc1` was tested, and the GI50 (MDA-MB-468 breast) was 2.18 µM and the TGI (MDA-MB-468 breast) was 9.56 µM.
With `Cc1cccc(NC(=O)[C@]23CCC(C)(C)CC2C2=CCC4[C@@]5(C)C[C@@H](O)[C@H](O)[C@@](C)(CO)C5CC[C@@]4(C)[C@]2(C)CC3)c1` (some centres undefined) the GI50 (786-0 renal) was 14.6 µM, the TGI (786-0 renal) was 29.4 µM and the GI50 (A498 renal) was 15.7 µM. The TGI (A498 renal) was 29.4 µM, the GI50 (A549 NSCLC) was 22.2 µM and the TGI (A549 NSCLC) was > 100 µM. It also gave a GI50 (ACHN renal) of 12.4 µM, a TGI (ACHN renal) of 24.9 µM and a GI50 (BT-549 breast) of 14.3 µM. The TGI (BT-549 breast) was 27.8 µM, the GI50 (CAKI-1 renal) was 6.63 µM and the TGI (CAKI-1 renal) was 21.9 µM. The GI50 (CCRF-CEM leukemia) was 9.29 µM, the TGI (CCRF-CEM leukemia) was 35.1 µM and the GI50 (COLO 205 colon) was 13.6 µM. It also gave a TGI (COLO 205 colon) of 29.1 µM, a GI50 (DU-145 prostate) of 16.5 µM and a TGI (DU-145 prostate) of 39.1 µM. It also gave a GI50 (EKVX NSCLC) of 12.8 µM, a TGI (EKVX NSCLC) of 29.1 µM and a GI50 (HCC-2998 colon) of 13 µM. For the same molecule, the TGI (HCC-2998 colon) was 26.2 µM, the GI50 (HCT-116 colon) was 10.7 µM and the TGI (HCT-116 colon) was 22.5 µM. It also gave a GI50 (HCT-15 colon) of 10.8 µM, a TGI (HCT-15 colon) of 23.4 µM and a GI50 (HL-60(TB) leukemia) of 15.2 µM. It also gave a TGI (HL-60(TB) leukemia) of 55.9 µM, a GI50 (HOP-62 NSCLC) of 14.9 µM and a TGI (HOP-62 NSCLC) of 29.4 µM. It also gave a GI50 (HOP-92 NSCLC) of 8.64 µM, a TGI (HOP-92 NSCLC) of 23.1 µM and a GI50 (HS 578T breast) of 12.8 µM. The TGI (HS 578T breast) was 50.8 µM, the GI50 (HT29 colon) was 13.1 µM and the TGI (HT29 colon) was 27 µM. It also gave a GI50 (IGROV1 ovarian) of 12.2 µM, a TGI (IGROV1 ovarian) of 25.4 µM and a GI50 (K-562 leukemia) of 14.5 µM. It also gave a TGI (K-562 leukemia) of 60.5 µM, a GI50 (KM12 colon) of 14.1 µM and a TGI (KM12 colon) of 30.8 µM. For the same molecule, the GI50 (LOX IMVI melanoma) was 12.8 µM, the TGI (LOX IMVI melanoma) was 27.8 µM and the GI50 (M14 melanoma) was 13.7 µM. For the same molecule, the TGI (M14 melanoma) was 27.3 µM, the GI50 (MALME-3M melanoma) was 14.7 µM and the TGI (MALME-3M melanoma) was 28.3 µM. It also gave a GI50 (MCF7 breast) of 5.71 µM, a TGI (MCF7 breast) of 19.2 µM and a GI50 (MDA-MB-231 breast) of 13.8 µM. It also gave a TGI (MDA-MB-231 breast) of 28.1 µM, a GI50 (MDA-MB-435) of 13.3 µM and a TGI (MDA-MB-435) of 26.5 µM. It also gave a GI50 (MDA-MB-468 breast) of 5.17 µM, a TGI (MDA-MB-468 breast) of 20.4 µM and a GI50 (MOLT-4 leukemia) of 7.87 µM. The TGI (MOLT-4 leukemia) was 52 µM, the GI50 (NCI-H226 lung) was 10.4 µM and the TGI (NCI-H226 lung) was 22.9 µM. It also gave a GI50 (NCI-H23 lung) of 14.6 µM, a TGI (NCI-H23 lung) of 28.8 µM and a GI50 (NCI-H460 lung) of 12.5 µM. The TGI (NCI-H460 lung) was 25.6 µM, the GI50 (NCI-H522 lung) was 14.6 µM and the TGI (NCI-H522 lung) was 28.9 µM. For the same molecule, the GI50 (OVCAR-3 ovarian) was 14 µM, the TGI (OVCAR-3 ovarian) was 28 µM and the GI50 (OVCAR-4 ovarian) was 11.5 µM. For the same molecule, the TGI (OVCAR-4 ovarian) was 25.2 µM, the GI50 (OVCAR-5 ovarian) was 13.3 µM and the TGI (OVCAR-5 ovarian) was 26.4 µM. It also gave a GI50 (OVCAR-8 ovarian) of 18.5 µM, a TGI (OVCAR-8 ovarian) of 60.2 µM and a GI50 (PC-3 prostate) of 5.16 µM. It also gave a TGI (PC-3 prostate) of 20.5 µM, a GI50 (RPMI-8226 leukemia) of 6.25 µM and a TGI (RPMI-8226 leukemia) of 32 µM. The GI50 (RXF 393 renal) was 3.77 µM, the TGI (RXF 393 renal) was 17 µM and the GI50 (SF-268 CNS) was 14.1 µM. It also gave a TGI (SF-268 CNS) of 42.3 µM, a GI50 (SF-295 CNS) of 10 µM and a TGI (SF-295 CNS) of 22.5 µM. It also gave a GI50 (SF-539 CNS) of 13.9 µM, a TGI (SF-539 CNS) of 28 µM and a GI50 (SK-MEL-28 melanoma) of 13.3 µM. For the same molecule, the TGI (SK-MEL-28 melanoma) was 26.5 µM, the GI50 (SK-MEL-5 melanoma) was 11.9 µM and the TGI (SK-MEL-5 melanoma) was 24.3 µM. For the same molecule, the GI50 (SK-OV-3 ovarian) was 14.5 µM, the TGI (SK-OV-3 ovarian) was 34.6 µM and the GI50 (SN12C renal) was 12.6 µM. It also gave a TGI (SN12C renal) of 25.5 µM, a GI50 (SNB-19 CNS) of 18.4 µM and a TGI (SNB-19 CNS) of 47.4 µM. It also gave a GI50 (SNB-75 CNS) of 6.02 µM, a TGI (SNB-75 CNS) of 39.1 µM and a GI50 (SR leukemia) of 16.7 µM. For the same molecule, the TGI (SR leukemia) was > 100 µM, the GI50 (SW-620 colon) was 15 µM and the TGI (SW-620 colon) was 29.7 µM. It also gave a GI50 (T-47D breast) of 7.45 µM, a TGI (T-47D breast) of 20.7 µM and a GI50 (TK-10 renal) of 16.5 µM. For the same molecule, the TGI (TK-10 renal) was 35.8 µM, the GI50 (U251 CNS) was 14.9 µM and the TGI (U251 CNS) was 30.1 µM. For the same molecule, the GI50 (UACC-257 melanoma) was 15.3 µM, the TGI (UACC-257 melanoma) was 31.5 µM and the GI50 (UACC-62 melanoma) was 11.3 µM. For the same molecule, the TGI (UACC-62 melanoma) was 23.7 µM, the GI50 (UO-31 renal) was 7.07 µM and the TGI (UO-31 renal) was 20.3 µM.
Molecule `COc1ccc(/C=C(\C#N)n2nnc3cc(Cl)ccc32)cc1` has a GI50 (MDA-MB-468 breast) of 0.258 µM and a TGI (MDA-MB-468 breast) of 0.941 µM.
In the case of `CCN(Cc1ccc(F)cc1F)c1ccc(CO)c(Cl)c1`, the GI50 (MDA-MB-468 breast) is reported as 0.0159 µM and the TGI (MDA-MB-468 breast) is reported as 0.0395 µM.
Molecule `CCN(CC)c1ccc2[nH]c3c(C(N)=O)cc(=O)c(=O)c=3oc2c1` has a GI50 (MDA-MB-468 breast) of 1.85 µM and a TGI (MDA-MB-468 breast) of 4.75 µM.
